Patent US8101159B2, “In vivo methods of identifying compounds which target suppressed cancer cells” (The Board of Regents of the University of Oklahoma, priority 2005, dated 2012)

Assays:
suppressed cancer cells = test: Library screen and dose-response, cells on normal matrix vs cells on plastic; assay type: cell-based; conditions: FIGS. 3A, 3B, 6A-6C
Method: Screening of compounds. The National Cancer Institute Developmental Therapeutics Program (NCI DTP) diversity set of 1990 compounds1 was obtained by material transfer agreement and was diluted to a final concentration of 166.7 μM in serum-containing media and placed onto cells for 72 hours at 37° C. and 5% CO2. A marker of cell proliferation using the substrate 5-carboxyfluorescein diacetate acetoxymethyl ester (CFDA-AM) cleaved to fluorescein by non-specific cellular esterases was used. Briefly, media containing a final concentration of 5 μM CFDA-AM (Molecular Probes, Eugene, Oreg.) was added in PBS for two h at 37° C. Plates were then read by a FLUOstar Optima plate reader (BMG LABTECH, Durham, N.C.) using 385 nm excitation, 428 nm emission filter.
(§1) Dose-response relations of lead compounds. To 100 μl media on cells was added 100 μl of a 2× (666.7 μM) stock of either doxorubicin, tetrandrine or o-cresolphthalein in completed media in a single column in a 96-well plate. 1:3 dilutions were made from this highest dose by removing 66.7 μl into the next column of cells containing 133 μl media. Cells were incubated with drug for 72 hours, then the CFDA-AM assay completed as described above.
(§2) Drug screening. The percent inhibition of cell proliferation (as determined by CFDA-AM cleavage) as compared to untreated cells was calculated for each drug in the wells of plates. The ratio of percent inhibition of the same drug of cells grown on SISgel as compared to non-confluent monolayers also was calculated. All library compounds were screened twice for consistency.
(§3) Dose-response relations. Data were graphed as percent inhibition of proliferation as compared to untreated cells and from this EC50 values calculated using sigmoidal dose-response non-linear regression analysis (GraphPad Prism 4.0 software, San Diego, Calif.). Dose-response relation data were compared to one another using two-way ANOVA with Bonferroni post-test (GraphPad Prism 4.0 software, San Diego, Calif.).
SISgel (90 μl) is added to wells of a 96-well plate and allowed to gel. Cancer cells in 50 μl of nutrient (such as, for example, J82 bladder cancer cell, RT4 cancer cells, TCCSUP cancer cells, 5637 cancer cells, MDA-MB-468 breast cancer cells, or B16-F10 skin tumor (or any metastatic murine melanoma)) are added to each well and allowed to attach and grow. After 24 hours, the test compounds are added to wells at 10 μM concentration. The cells are allowed to grow in the presence of the test compound for 24 hours, at which time the number of cells (or survival or mortality) are estimated by a fluorometric method. In one embodiment, the fluorometric method is an assay performed using an esterase substrate, 5-carboxyfluorescein diacetate acetoxymethyl ester (CFDA) (available from Molecular Probes, Eugene, Oreg., USA), however, any suitable assay for measuring cell survival or mortality known by those of ordinary skill in the art may be used. Examples of fluorometers which can be used include, but are not limited to, FLUOStar Optima plate reader (BMG Biotech), FL600 fluorescent plate reader (Bio-Tek Instruments), Victor2 plate reader (Wallac), FluoroCount BF10000 fluorescent microplate reader (Packard), CytoFluor® 4000 (Applied Biosystems), Bio-Tek Synergy, BMG FLUOstar Galaxy and OPTIMA, PerkinElmer Victor™, PerkinElmer HTS 7000, TECAN SpectraFluor Plus, Thermo LabSystems Fluoroskan Ascent, and the like.
The cell number results are compared to those observed in cells grown conventionally on plastic in nearly confluent monolayers that show approximately the same growth rate as the cells on SISgel. […] In other embodiments, the ratio used may be, for example, less than two fold or greater than two fold as long as the cell number or survival on non-suppressing cell support matrix is greater than the number of cells on the suppressing cell support matrix. Preferably, each positive result is then confirmed by a full dose-response curve. […]

[1] = test system: J82 metastatic bladder cancer cells; test: In vivo flank xenograft, GFP-tagged cells co-injected with suppressive SISgel; conditions: nude mice, 35 mg/kg Monday, Wednesday and Friday from day 8
Method: Flank xenograft model. J82 cells stably expressing green fluorescent protein (GFP) were prepared as follows. pLEGFP-C1 retrovirus (Clontech, Mountain View, Calif.) was co-transfected with the pVSV-G vector (Clontech, Mountain View, Calif.) which contains a viral envelope gene into the packaging cell line GP2-293 (Clontech, Mountain View, Calif.). Supernatant from the packaging cells containing the infective virus was collected every 24 hours for 4 days. Fluorescent target cells were made by infecting J82s, a urothelial transitional cell carcinoma cell line (ATCC, Manassas, Va.), with 1 ml of fresh, virus containing, supernatant/well containing 100,000 target cells along with 8 μg/ml of polybrene (Sigma Aldrich, St. Louis, Mo.). Each application of viral supernatant was filtered through a 0.4 μM syringe filter before application to target cells. Supernatant was removed and fresh virus containing media replenished on target cells every 24 hours until 4 changes of media were completed. […]
(§4) In sterile 500 μl centrifuge tubes, placed on ice, 100 μl of cell suspension was mixed with either 100 μl ice-cold prepared SISgel or ice-cold Matrigel and mixed well. […] The area and intensity of the tumor was measured using Adobe Photoshop by first selecting the tumor area, then counting pixels above a threshold selected to eliminate background, non-tumor areas. The integrated intensity was calculated by multiplying the average intensity of detected pixels by the number of pixels detected.
(§5) In this experiment, the activities of three compounds identified by the in vitro screening method were compared against both ECM-suppressed (SISgel, right) and actively growing (Matrigel, left) J82 metastatic bladder cancer cells. […] When tumors were first visible fluorescently (8 days after implantation), 35 mg/kg Bordeaux Red, tetrabromofluorescein, or Wool Violet 2R were injected Monday, Wednesday and Friday and tumor size was measured using fluorescence microscopy. A representative time course of fluorescence imaging is shown from a single animal for each treatment group. […]

[2] = test system: J82 metastatic bladder cancer cells; test: In vivo flank xenograft, GFP-tagged cells co-injected with permissive Matrigel; conditions: nude mice; for activity against actively growing cells in vivo (fluorescence imaging): 35 mg/kg Monday, Wednesday and Friday from day 8
Method: Flank xenograft model. J82 cells stably expressing green fluorescent protein (GFP) were prepared as follows. pLEGFP-C1 retrovirus (Clontech, Mountain View, Calif.) was co-transfected with the pVSV-G vector (Clontech, Mountain View, Calif.) which contains a viral envelope gene into the packaging cell line GP2-293 (Clontech, Mountain View, Calif.). Supernatant from the packaging cells containing the infective virus was collected every 24 hours for 4 days. Fluorescent target cells were made by infecting J82s, a urothelial transitional cell carcinoma cell line (ATCC, Manassas, Va.), with 1 ml of fresh, virus containing, supernatant/well containing 100,000 target cells along with 8 μg/ml of polybrene (Sigma Aldrich, St. Louis, Mo.). Each application of viral supernatant was filtered through a 0.4 μM syringe filter before application to target cells. Supernatant was removed and fresh virus containing media replenished on target cells every 24 hours until 4 changes of media were completed. Virus containing media was replaced with Minimum Essential Media, MEM, (Life Technologies, Carlsbad, Calif.) containing 1% nonessential amino acids, 1% L-glutamine, 1% sodium pyruvate and 10% Fetal Calf Serum, and cells were allowed to grow to 90% confluence. Stable transfects were selected through sequential sorting and enrichment of fluorescent cells using flow cytometry.
as §4, with “well. The mix was immediately injected into either the right or left flank of a 5-week old nude mouse, nu/nu-nuBR, (Charles River Laboratories, Wilmington, Mass.). Caliper measurements of tumor size were taken every week for the length of the study as were fluorescent images.” for “well.”
as §5

MDA-MB-468 cells = test: Complete dose response, cells in SISgel vs monolayers or Matrigel; assay type: cell-based; conditions: FIGS. 8A-8B
Method: as §1, §3
(§6) SISgel (90 μl) is added to wells of a 96-well plate and allowed to gel. […] Examples of fluorometers which can be used include, but are not limited to, FLUOStar Optima plate reader (BMG Biotech), FL600 fluorescent plate reader (Bio-Tek Instruments), Victor2 plate reader (Wallac), FluoroCount BF10000 fluorescent microplate reader (Packard), CytoFluor® 4000 (Applied Biosystems), Bio-Tek Synergy, BMG FLUOstar Galaxy and OPTIMA, PerkinElmer Victor™, PerkinElmer HTS 7000, TECAN SpectraFluor Plus, Thermo LabSystems Fluoroskan Ascent, and the like. […]

B16-F10 cells = test: as above; assay type: cell-based, murine; conditions: FIGS. 9A-9B
Method: as §1, §3, §6

J82 cells = test: Cell proliferation dose-response (CFDA-AM), cells on SISgel vs non-confluent monolayers; assay type: cell-based
Method: Plating of cells for screening. Three-dimensional gel cultures with Matrigel were made by layering 50 μl of ice cold Matrigel into wells of a Costar 3610 white, clear bottom 96-well plates (Corning, Corning, N.Y.) allowed to gel at 37° C. Confluent cells were trypsinized with 1 ml 0.25% trypsin −1 mM EDTA, and 30,000 were added to wells containing the gelled matrices. The cells were fed with 50 μl of their respective media containing 10% fetal calf serum. To establish non-confluent monolayers, cells were plated at a cell density of 10,000/well 24 hours prior to drug treatments.
Screening of compounds. […] Plates were then read by a FLUOstar Optima plate reader (BMG LABTECH, Durham, N.C.) using 385 nm excitation, 428 nm emission filter. […]
as §2, with “All library compounds were screened twice for consistency.” left out
Dose-response relations. Data were graphed as percent inhibition of proliferation as compared to untreated cells and from this EC50 values calculated using sigmoidal dose-response non-linear regression analysis (GraphPad Prism 4.0 software, San Diego, Calif.). […]

Wool Violet 2R
sensitivity of cells on normal matrix compared with cells grown on plastic (suppressed cancer cells): several fold increased sensitivity
effect on ECM-suppressed cells in vivo (fluorescence imaging) [1]: caused disappearance of the cells
activity against actively growing cells in vivo (fluorescence imaging) [2]: none of the three compounds had any activity

CC1=C(N2CC2)C(=O)C(CO)=C(N2CC2)C1=O [NSC 697726]
sensitivity of cells on normal matrix compared with cells grown on plastic (suppressed cancer cells): several fold increased sensitivity

O=C1OC2(c3ccc(O)cc3Oc3cc(O)ccc32)c2c(Br)c(Br)c(Br)c(Br)c21 [3,4,5,6-tetrabromofluorescein]
sensitivity of cells on normal matrix compared with cells grown on plastic (suppressed cancer cells): several fold increased sensitivity
EC50 of cells grown in SISgel compared with monolayers or Matrigel (MDA-MB-468 cells): lower EC50 values
EC50 of cells grown in SISgel compared with monolayers or Matrigel (B16-F10 cells): lower EC50 values
effect on ECM-suppressed cells in vivo (fluorescence imaging) [1]: caused disappearance of the cells
rate of tumor growth in Matrigel treated animals compared with controls ([2]; 35 mg/kg): weak inhibition of tumor growth
activity against actively growing cells in vivo (fluorescence imaging) [2]: none of the three compounds had any activity

Cc1cc(C)c(NC(=O)/C=C/c2ccccc2)c(C)c1 [NSC 191384]
activity against cancer cells under suppressing conditions compared with non-suppressing cell culture (dose-response, FIG. 2) (J82 cells): more active against cancer cells grown under the suppressing conditions
sensitivity of cells on normal matrix compared with cells grown on plastic (suppressed cancer cells): several fold increased sensitivity

O=S(=O)([O-])c1ccc2c(N=Nc3cccc4ccccc34)c(O)c(S(=O)(=O)[O-])cc2c1.[Na+].[Na+] [Bordeaux Red]
sensitivity of cells on normal matrix compared with cells grown on plastic (suppressed cancer cells): several fold increased sensitivity
EC50 of cells grown in SISgel compared with monolayers or Matrigel (MDA-MB-468 cells): lower EC50 values
EC50 of cells grown in SISgel compared with monolayers or Matrigel (B16-F10 cells): lower EC50 values
effect on ECM-suppressed cells in vivo (fluorescence imaging) [1]: caused disappearance of the cells
activity against actively growing cells in vivo (fluorescence imaging) [2]: none of the three compounds had any activity

CC(C)=CCC(OC(=O)C=C(C)C)C1=CC(=O)c2c(O)ccc(O)c2C1=O (stereo not drawn) [NSC140377]
sensitivity of cells on normal matrix compared with cells grown on plastic (suppressed cancer cells): several fold increased sensitivity
